The target of one experiment is T1, Estrogen receptor (Homo sapiens, UniProt P03372).
T1 sequence (P03372 whole entry): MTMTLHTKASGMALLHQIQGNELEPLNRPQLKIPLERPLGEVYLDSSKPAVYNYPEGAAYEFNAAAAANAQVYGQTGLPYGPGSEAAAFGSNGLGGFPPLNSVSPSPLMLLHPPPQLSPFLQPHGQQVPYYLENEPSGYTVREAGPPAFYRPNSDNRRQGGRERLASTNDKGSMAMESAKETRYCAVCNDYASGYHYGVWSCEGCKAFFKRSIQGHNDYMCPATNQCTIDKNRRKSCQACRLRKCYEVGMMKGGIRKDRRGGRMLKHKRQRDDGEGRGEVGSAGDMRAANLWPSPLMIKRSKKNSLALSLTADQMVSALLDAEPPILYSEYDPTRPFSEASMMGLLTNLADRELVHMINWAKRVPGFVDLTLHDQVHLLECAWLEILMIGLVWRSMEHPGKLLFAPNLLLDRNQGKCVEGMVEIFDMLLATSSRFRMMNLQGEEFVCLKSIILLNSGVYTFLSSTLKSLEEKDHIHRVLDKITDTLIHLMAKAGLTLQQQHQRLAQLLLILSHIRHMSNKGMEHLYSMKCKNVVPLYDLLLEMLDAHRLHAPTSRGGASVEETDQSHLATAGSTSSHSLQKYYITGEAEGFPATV
Nature of the experiment: Induction of ERalpha protein degradation in human MCF7 cells assessed as reduction in ERalpha protein levels incubated for 24 hrs by In-cell western assay. In kind it is cell-based. Particulars: for DC50: mcf7, read-out: IC50 (the source's name).

Experiment [1] addresses T2, Estrogen receptor (Homo sapiens) (UniProt P03372).
T2 sequence (whole entry): T1 sequence (P03372 whole entry)
The experiment in a line: Displacement of [3H]estradiol from full length human ERalpha by competitive radiometric binding assay relative to estradiol. On the technique in general: In a radioligand displacement assay an active substance lowers the binding of a labelled ligand.

Another experiment deals with MCF7. The experiment in a line: Antiproliferative activity against human MCF7 cells assessed as reduction in cell viability incubated for 6 days by WST1 dye based assay. The class given is functional. The note with it: MCF7, 144 h. In general terms: Tetrazolium dyes change colour on reduction, which living cells bring about.

Structures are written as SMILES. pIC50: −log10 of the molar value.

With `O=C(NCCCOc1ccc(C(=C2C3CC4CC(C3)CC2C4)c2ccc(O)cc2)cc1)C12CC3CC(CC(C3)C1)C2`, the DC50 at Estrogen receptor was found to be 3 nM.
By pIC50 is commonly meant −log10 of the IC50, conventionally taken in molar units. For `O=C(NCCCCOc1ccc(C(=C2C3CC4CC(C3)CC2C4)c2ccc(O)cc2)cc1)C12CC3CC(CC1C3)C2`, the pIC50 at Estrogen receptor was 8.70.
In the case of `O=C(NCCCCOc1ccc(C(=C2C3CC4CC(C3)CC2C4)c2ccc(O)cc2)cc1)C1CCCCC1`, the DC50 on Estrogen receptor was found to be 0.4 nM.
The compound `O=C(NCCCCOc1ccc(C(=C2C3CC4CC(C3)CC2C4)c2ccc(O)cc2)cc1)[C@H]1C[C@@H]2C=C[C@H]1C2` gave an RBA in experiment [1] of 37%. Also, in the experiment with MCF7, the negative logarithm of the IC50 (pIC50) was 8.05.

The values above are taken from ChEMBL document CHEMBL4376905, “Selective Estrogen Receptor Degraders for the Potential Treatment of Cancer” (ACS Med Chem Lett, 2020).
